Measurements taken from paper PMC8986850, “Development and exploration of novel substituted thiosemicarbazones as inhibitors of aldose reductase via in vitro analysis and computational study” (Scientific Reports, 2022).

What was measured:
ALR2 = target: T1, ALR2 (Bos taurus, UniProt P16116); assay: ALR2 enzyme inhibition assay (enzyme extracted from calf lenses); assay type: biochemical, bovine
T1 construct: from tissue; host or cells: calf eye lenses
Protocol: Compounds 3a-o were tested against ALR2 to evaluate their inhibitory potential against aldose reductase whereas selectivity was determined via performing ALR1 inhibition assay. For the enzyme inhibition assay, ALR2 and ALR1 were extracted from bovine sources (ALR2 from eyes and ALR1 from kidneys). Moreover, inhibitions studies were also carried out on the expressed ALR2 (human AKR1B1) and inhibition data for ALR2- bovine source and expressed enzyme was compared and analyzed. The protocols for enzyme extraction and expression in the bacterial system are included in the section of “Supporting information”. […] For the purpose of comparison and validation of enzyme inhibition data, these compounds were tested against human AKR1B1 (hAKR1B1) expressed in E. coli BL21 (DE3).
(§1) For the determination of enzyme activity of ALR1 and ALR2, 100 µL of reaction mixture was composed of 20 µL of buffer (100 mM sodium phosphate, pH 6.2), 30 µL of enzyme extract, 20 µL of substrate (10 mM), 20 µL of cofactor (0.1 mM of NADPH) and 10 µL of test compound (1 mM)[6],[21]. The reaction mixture without cofactor was incubated at 32°C for 10 min, then the enzymatic reaction was initiated with the addition of NADPH and monitored for 5 minutes. Similar protocols were followed for ALR1 and ALR2, however the substrate was different for each enzyme, with sodium-D-glucoronate and DL-glyceraldehyde used as the substrates for the ALR1 and ALR2 assays, respectively. […] In addition, similar protocols were adopted for human AKR1B1 that was expressed in E. coli BL21 (DE3), though the determined protein concentration was 12 µg/mL for the expressed enzyme. Detailed protocols for the preparation of ALR1, ALR2 and expressed human AKR1B1 can be found in the supporting information.
(§2) The newly synthesized N-substitute thiosemicarbazones (3a-o) were dissolved in 100% DMSO and diluted with deionized water, keeping the DMSO concentration equal to 0.1% in the assay.
The extraction of ALR2 was carried out from calf lenses via adopting method described in
in (Hayman and Kinoshita 1965) with little modification. The lenses were obtained from slaughterhouse immediately after calf’s slaughtering and stored at -20^◦C until further use. These lense (150-170g) were subjected to homogenization with about three times volume of cold distilled water and then centrifugation was carried out for the homogenate at 10,000 x g for 14 minutes for removal of insoluble lipids particles. Precipitates were discarded and supernatant layer was subjected to 40% saturation of ammonium sulphate and again centrifugation was performed with same parameters for 14 minutes and again precipitates were discarded. […] In the last step, the supernatant was subjected to 75% of saturation with ammonium sulphate to obtain ALR2. Now, the precipitates were collected instead supernatant because precipitated protein was the expected desired ALR2. The precipitated enzyme (ALR2) was redissolved in 50mM solution of sodium chloride and dialyzed for 24 hours against 50mM solution (3.5L) of NaCl. The volume was recorded before and after dialysis, then dialyzed material was treated with liquid nitrogen. The extracted ALR2 was stored in 1mL Eppendorf tube in deep freezer at -80 ^◦C till further enzymatic studies.

human AKR1B1 (hAKR1B1) = target: T2, human AKR1B1 (hAKR1B1) (Homo sapiens, UniProt P15121); assay: Inhibition of expressed human AKR1B1 (E. coli BL21 (DE3)); assay type: biochemical; settings: human AKR1B1 expressed in E. coli BL21 (DE3), mean ± SEM of three measurements
T2 construct: made in house; host or cells: E. coli BL21 (DE3)
Protocol: For the enzyme inhibition assay, ALR2 and ALR1 were extracted from bovine sources (ALR2 from eyes and ALR1 from kidneys). Moreover, inhibitions studies were also carried out on the expressed ALR2 (human AKR1B1) and inhibition data for ALR2- bovine source and expressed enzyme was compared and analyzed. The protocols for enzyme extraction and expression in the bacterial system are included in the section of “Supporting information”. […] For the purpose of comparison and validation of enzyme inhibition data, these compounds were tested against human AKR1B1 (hAKR1B1) expressed in E. coli BL21 (DE3).
as §1, with “The reaction mixture without cofactor was incubated at 32°C for 10 min, then the enzymatic reaction was initiated with the addition of NADPH and monitored for 5 minutes.” left out
as §2
The expression plasmid for aldose reductase (pDONR223_AKR1B1_WT) was gift from Addgene in stable culture. Streaking of this culture has been carried out on LB Agar plate then incubated overnight, after growth of colonies , inoculation was performed in LB medium then incubated this medium in shaking incubator at 37 °C. After 48 hours turbidity was measured when OD=0.6 then some of bacterial growth was prepared as 50% glycerol stock. Others are subjected to plasmid isolation following method Miniprep. Meanwhile E. Coli BL21 De3 cells were made competent then transformation with extracted plasmid (AKR1B1) had been carried out heat shock method. Transformed cell ( E.Coli BL21 DE3+AKR1B1) were grown in 37 °C in shaking incubator for 48 hr. The selection for transformed cells was carried out with the help of antibiotic (spectinomycin 50µg/ml). […] For the expression of aldose reductase , E.coli BL21DE3 were induced with of IPTG(Isopropyl-d-thiogalactopyranoside)[3]. […] The expressed enzyme was stabilized by addition 10 mM Tris–HCl buffer, 0.5 mM EDTA, 5 mM β-marcaptoethanol at pH 8.0 and 20% (v/v) glycerol. Cells were lysed with lysis buffer and then precipitation with ammonium sulfate up to 80% saturation was done . the expressed enzyme was dialyzed overnight against tris buffer. Protein quantification was performed following Bradford protein assay. Aliqoutes were stored at -80 refrigerator.

[1] = DPPH radical scavenging activity; settings: 100 µM compound, methanolic DPPH 0.025 mg/mL, 517 nm
Protocol: DPPH (2,2-diphenyl-1-picrylhydrazyl) was used to explore the free radical quenching ability of 3a-o so as to provide a gauge of their antioxidant potential. The experiment was conducted according to a previously reported protocol with slight modifications. Percent free radical scavenging activities (% FRSA) of 3a-o were determined by spectrophotometric analysis at 517 nm using a homogenous mixture of methanolic DPPH (0.025 mg/mL) and a 100 µM solution of the tested compound, with ascorbic acid used as a positive control (Fig. 3).

inhibition at 100 µM (ALR2; bovine lens ALR2, 100 µM inhibitor, read-out: I (%, 100 µM) (ALR2) (converted)): 85.1%
IC50 (ALR2; bovine lens ALR2, substrate DL-glyceraldehyde, mean ± SEM of three measurements): 1180 ± 3.4 nM
IC50 (human AKR1B1 (hAKR1B1)): 1360 ± 4 nM
melting point: 180 to 182 °C
Structure (SMILES): CC(C)(C)c1cc(C=NNC(=S)Nc2ccccc2F)c(O)c(C(C)(C)C)c1 [Compound 3m, 2-(3,5-di-tert-butyl-2-hydroxybenzylidene)-N-(2-fluorophenyl)hydrazine carbothioamide]
% FRSA (percent free radical scavenging activity) [1]: 75.95%
